From ChEMBL document CHEMBL5518189, “Design, synthesis and biological evaluation of 1,2,3-triazole benzothiazole derivatives as tubulin polymerization inhibitors with potent anti-esophageal cancer activities” (Eur J Med Chem, 2024)

Tests used:
[1] = test system: MGC-803; assay: Antiproliferative activity against human MGC-803 cells assessed as inhibition of cell growth measured after 48 hrs by CCK8 method; type: functional, cell-based; conditions: MGC-803, 48 h
[2] = test system: KYSE-30; assay: Antiproliferative activity against human KYSE-30 cells assessed as inhibition of cell growth measured after 48 hrs by CCK8 method; type: functional, cell-based; conditions: KYSE-30, 48 h
[3] = test system: HCT-116; assay: Antiproliferative activity against human HCT-116 cells assessed as inhibition of cell growth measured after 48 hrs by CCK8 method; type: functional, cell-based; conditions: HCT-116, 48 h
[4] = test system: HeLa; assay: Growth inhibition of human HeLa cells; type: functional
[5] = biological target: Tubulin; assay: Inhibition of tubulin polymerization (unknown origin); type: protein-complex assay, Homo sapiens
[6] = biological target: Tubulin; assay: Inhibition of tubulin polymerization (unknown origin) by spectrophotometer analysis; type: protein-complex assay, Homo sapiens
[7] = test system: PC-3; assay: Antiproliferative activity against human PC-3 cells assessed as inhibition of cell growth measured after72 hrs by MTT assay; type: functional, cell-based

SMILES | IC50 [1] | IC50 [3] | GI50 [4] | IC50 [5] | IC50 [6] | IC50 [7] | IC50 [2]
COc1cc(N(Cc2ccc(Br)cc2)C(=O)Cn2cc(CSc3nc4ccccc4s3)nn2)cc(OC)c1OC | 74.3 µM | 60.1 µM | – | – | – | – | > 80 µM
COc1ccc(CN(C(=O)Cn2cc(CSc3nc4ccccc4s3)nn2)c2ccc(F)cc2)cc1 | 68.5 µM | > 80 µM | – | – | – | – | 77.6 µM
COc1ccc2nc(-c3ccc(-n4cnnc4-c4cc(OC)c(OC)c(OC)c4)c(C)c3)sc2c1 | – | – | 0.04 µM | 1.91 µM | – | – | –
COc1cc(N(Cc2ccc(Cl)cc2)C(=O)Cn2cc(CSc3nc4ccccc4s3)nn2)cc(OC)c1OC | > 80 µM | > 80 µM | – | – | – | – | > 80 µM
COc1ccc(CN(C(=O)Cn2cc(CSc3nc4ccccc4s3)nn2)c2ccc(Cl)cc2)cc1 | 62.1 µM | 59.5 µM | – | – | – | – | > 80 µM
COc1ccc2nc(-c3cccnc3-c3cc(OC)c(OC)c(OC)c3)sc2c1 | – | – | – | 1.67 µM | – | – | –
COc1cc(C(=O)c2nc3cc(Br)ccc3s2)cc(OC)c1OC | – | – | – | – | 13.1 µM | – | –
COc1cc2c(c(OC)c1OC)-c1ccc(OC)c(=O)cc1[C@@H](NC(C)=O)CC2 [COLCHICINE] | 0.046 µM | – | – | – | – | – | 0.048 µM
COc1cc(N(Cc2c(C)noc2C)C(=O)CSc2nc3ccccc3s2)cc(OC)c1OC | – | – | – | – | – | 2.04 µM | –
COc1cc(CN(C(=O)Cn2cc(CSc3nc4ccccc4s3)nn2)c2cc(OC)c(OC)c(OC)c2)cc(OC)c1OC | > 80 µM | > 80 µM | – | – | – | – | > 80 µM
COc1ccc(CN(C(=O)Cn2cc(CSc3nc4ccccc4s3)nn2)c2ccccc2)cc1 | 52.5 µM | 63.7 µM | – | – | – | – | 62.2 µM
COc1ccc(CN(C(=O)Cn2cc(CSc3nc4ccccc4s3)nn2)c2ccc(C)cc2)cc1 | 46.5 µM | > 80 µM | – | – | – | – | 63.1 µM
COc1ccc(CN(C(=O)Cn2cc(CSc3nc4ccccc4s3)nn2)c2ccc(Br)cc2)cc1 | 53.3 µM | 60.3 µM | – | – | – | – | 35.5 µM
COc1cc(N(Cc2c(C)noc2C)C(=O)Cn2cc(CSc3nc4ccccc4s3)nn2)cc(OC)c1OC | > 80 µM | > 80 µM | – | – | – | – | > 80 µM
COc1cc(N(Cc2cccnc2)C(=O)Cn2cc(CSc3nc4ccccc4s3)nn2)cc(OC)c1OC | > 80 µM | > 80 µM | – | – | – | – | > 80 µM
COc1cc(N(Cc2ccc(F)cc2)C(=O)Cn2cc(CSc3nc4ccccc4s3)nn2)cc(OC)c1OC | > 80 µM | > 80 µM | – | – | – | – | > 80 µM

More lines, in order of falling IC50 [1], values ahead:

IC50 [1] | IC50 [3] | GI50 [4] | IC50 [5] | IC50 [6] | IC50 [7] | SMILES | IC50 [2]
40.3 µM | 68.7 µM | – | – | – | – | COc1cc(N(Cc2nc3ccccc3[nH]2)C(=O)Cn2cc(CSc3nc4ccccc4s3)nn2)cc(OC)c1OC | 56.8 µM
38.5 µM | 52.4 µM | – | – | – | – | COc1ccc(CN(C(=O)Cn2cc(CSc3nc4ccccc4s3)nn2)c2ccc(OC)c(OC)c2)cc1 | > 80 µM
14.5 µM | 34.2 µM | – | – | – | – | COc1ccc(CN(C(=O)Cn2cc(CSc3nc4ccccc4s3)nn2)c2ccc(OC)cc2)cc1 | 28.3 µM
8.16 µM | 16.2 µM | – | – | – | – | COc1ccc(CN(C(=O)Cn2cc(CSc3nc4ccccc4s3)nn2)c2cc(OC)c(OC)c(OC)c2)cc1[N+](=O)[O-] | 12.1 µM
2.35 µM | 3.97 µM | – | – | – | – | COc1cc(N(Cc2ccc(C)cc2)C(=O)Cn2cc(CSc3nc4ccccc4s3)nn2)cc(OC)c1OC | 1.86 µM
1.56 µM | 2.19 µM | – | – | – | – | COc1ccc(CN(C(=O)Cn2cc(CSc3nc4ccccc4s3)nn2)c2cc(OC)c(OC)c(OC)c2)cc1OC | 1.74 µM
1.03 µM | 1.68 µM | – | – | – | – | COc1ccc(CN(C(=O)Cn2cc(CSc3nc4ccccc4s3)nn2)c2cc(OC)c(OC)c(OC)c2)cc1 | 1.44 µM
0.82 µM | 1.33 µM | – | – | – | – | COc1ccc(CN(C(=O)Cn2cc(CSc3nc4ccccc4s3)nn2)c2cc(OC)c(OC)c(OC)c2)cc1Br | 1.14 µM
0.29 µM | 0.47 µM | – | – | – | – | COc1ccc(CN(C(=O)Cn2cc(CSc3nc4ccccc4s3)nn2)c2cc(OC)c(OC)c(OC)c2)cc1F | 0.76 µM
0.089 µM | 0.078 µM | – | – | – | – | COc1ccc(CN(C(=O)Cn2cc(CSc3nc4c(C)cccc4s3)nn2)c2cc(OC)c(OC)c(OC)c2)cc1O | 0.067 µM
0.088 µM | 0.094 µM | – | – | – | – | COc1ccc(CN(C(=O)Cn2cc(CSc3nc4ccccc4s3)nn2)c2cc(OC)c(OC)c(OC)c2)cc1N | 0.059 µM
0.069 µM | 0.062 µM | – | – | – | – | COc1ccc(CN(C(=O)Cn2cc(CSc3nc4ccc(Cl)cc4s3)nn2)c2cc(OC)c(OC)c(OC)c2)cc1O | 0.072 µM
0.063 µM | 0.126 µM | – | – | – | – | COc1ccc2nc(SCc3cn(CC(=O)N(Cc4ccc(OC)c(O)c4)c4cc(OC)c(OC)c(OC)c4)nn3)sc2c1 | 0.058 µM
0.054 µM | 0.064 µM | – | – | – | – | COc1ccc(CN(C(=O)Cn2cc(CSc3nc4ccc(Br)cc4s3)nn2)c2cc(OC)c(OC)c(OC)c2)cc1O | 0.049 µM
